SMILES strings stand for the structures.

We go through 5 compounds from ChEMBL document CHEMBL4411321, “Discovery of Potent, Selective, and Orally Bioavailable Estrogen-Related Receptor-γ Inverse Agonists To Restore the Sodium Iodide Symporter Function in Anaplastic Thyroid Cancer” (J Med Chem, 2019).

Data set [1] is described as follows: Metabolic stability in human liver microsomes assessed as compound remaining at 1 uM after 30 mins in presence of NADPH regeneration system by LC-MS/MS analysis. Format: ADME, Microsome. To be noted: read-out: Stability.
A short description of data set [2]: Effective permeability of the compound at 10 uM after 5 hrs by PAMPA. To be noted: read-out: Peff. Format: ADME.
The next data set addresses CYP2C19 (Homo sapiens, UniProt P33261). Nature of the data set: Inhibition of CYP2C19 in human liver microsomes assessed as reduction in S-mephenytoin 4-hydroxylase activity at 10 uM preincubated for 5 mins followed by NADPH addition and measured after 15 mins by LC-MS/MS analysis relative to control. It counts as ADME. To be noted: probe S-mephenytoin (4-hydroxylation).

The target in a further data set is CYP2C9 (Homo sapiens, UniProt P11712). Nature of the data set: Inhibition of CYP2C9 in human liver microsomes assessed as reduction in tolbutamide 4-hydroxylase activity at 10 uM preincubated for 5 mins followed by NADPH addition and measured after 15 mins by LC-MS/MS analysis relative to control. Particulars: probe tolbutamide (4-hydroxylation). Format: ADME.
Chain of CYP2C9 (P11712 whole entry): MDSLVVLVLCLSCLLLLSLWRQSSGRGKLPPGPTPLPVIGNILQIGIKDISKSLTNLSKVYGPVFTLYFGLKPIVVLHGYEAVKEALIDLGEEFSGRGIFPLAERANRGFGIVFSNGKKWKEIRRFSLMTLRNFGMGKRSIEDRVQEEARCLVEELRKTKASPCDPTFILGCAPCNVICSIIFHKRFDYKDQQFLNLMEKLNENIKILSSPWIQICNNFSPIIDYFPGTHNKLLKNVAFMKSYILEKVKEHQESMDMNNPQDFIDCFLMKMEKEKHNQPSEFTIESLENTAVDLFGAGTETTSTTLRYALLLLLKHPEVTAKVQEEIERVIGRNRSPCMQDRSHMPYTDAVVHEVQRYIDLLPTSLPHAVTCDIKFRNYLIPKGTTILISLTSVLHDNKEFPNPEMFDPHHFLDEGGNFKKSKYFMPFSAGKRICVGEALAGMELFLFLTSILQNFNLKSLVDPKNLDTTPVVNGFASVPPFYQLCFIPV

The target in a further data set is CYP3A4 (Homo sapiens, UniProt P08684). Nature of the data set: Inhibition of CYP3A4 in human liver microsomes assessed as reduction in midazolam 1-hydroxylase activity at 10 uM preincubated for 5 mins followed by NADPH addition and measured after 15 mins by LC-MS/MS analysis relative to control. It counts as ADME. Particulars: probe midazolam (1-hydroxylation).
Chain of CYP3A4 (P08684 whole entry): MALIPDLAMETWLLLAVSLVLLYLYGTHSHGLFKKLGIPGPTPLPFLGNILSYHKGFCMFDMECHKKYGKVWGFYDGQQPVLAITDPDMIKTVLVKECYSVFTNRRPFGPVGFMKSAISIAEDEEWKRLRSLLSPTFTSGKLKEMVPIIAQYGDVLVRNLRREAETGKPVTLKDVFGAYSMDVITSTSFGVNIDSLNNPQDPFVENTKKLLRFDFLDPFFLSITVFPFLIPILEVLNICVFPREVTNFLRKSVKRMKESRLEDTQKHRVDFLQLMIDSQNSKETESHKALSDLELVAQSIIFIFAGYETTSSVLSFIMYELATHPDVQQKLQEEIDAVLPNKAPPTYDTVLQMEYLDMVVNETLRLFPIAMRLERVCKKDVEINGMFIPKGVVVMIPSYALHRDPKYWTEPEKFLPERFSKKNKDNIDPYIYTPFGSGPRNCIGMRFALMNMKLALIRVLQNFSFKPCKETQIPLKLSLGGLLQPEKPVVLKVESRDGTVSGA

Data set [3] in a line: Metabolic stability in dog liver microsomes assessed as compound remaining at 1 uM after 30 mins in presence of NADPH regeneration system by LC-MS/MS analysis. Format: ADME, Canis lupus familiaris, Microsome. To be noted: read-out: Stability.
Data set [4] in a line: Metabolic stability in mouse liver microsomes assessed as compound remaining at 1 uM after 30 mins in presence of NADPH regeneration system by LC-MS/MS analysis. Format: ADME, Microsome. Particulars: read-out: Stability.
The target in data set [5] is Voltage-gated inwardly rectifying potassium channel KCNH2 (Homo sapiens, UniProt Q12809).
Chain of Voltage-gated inwardly rectifying potassium channel KCNH2 (Q12809 whole entry): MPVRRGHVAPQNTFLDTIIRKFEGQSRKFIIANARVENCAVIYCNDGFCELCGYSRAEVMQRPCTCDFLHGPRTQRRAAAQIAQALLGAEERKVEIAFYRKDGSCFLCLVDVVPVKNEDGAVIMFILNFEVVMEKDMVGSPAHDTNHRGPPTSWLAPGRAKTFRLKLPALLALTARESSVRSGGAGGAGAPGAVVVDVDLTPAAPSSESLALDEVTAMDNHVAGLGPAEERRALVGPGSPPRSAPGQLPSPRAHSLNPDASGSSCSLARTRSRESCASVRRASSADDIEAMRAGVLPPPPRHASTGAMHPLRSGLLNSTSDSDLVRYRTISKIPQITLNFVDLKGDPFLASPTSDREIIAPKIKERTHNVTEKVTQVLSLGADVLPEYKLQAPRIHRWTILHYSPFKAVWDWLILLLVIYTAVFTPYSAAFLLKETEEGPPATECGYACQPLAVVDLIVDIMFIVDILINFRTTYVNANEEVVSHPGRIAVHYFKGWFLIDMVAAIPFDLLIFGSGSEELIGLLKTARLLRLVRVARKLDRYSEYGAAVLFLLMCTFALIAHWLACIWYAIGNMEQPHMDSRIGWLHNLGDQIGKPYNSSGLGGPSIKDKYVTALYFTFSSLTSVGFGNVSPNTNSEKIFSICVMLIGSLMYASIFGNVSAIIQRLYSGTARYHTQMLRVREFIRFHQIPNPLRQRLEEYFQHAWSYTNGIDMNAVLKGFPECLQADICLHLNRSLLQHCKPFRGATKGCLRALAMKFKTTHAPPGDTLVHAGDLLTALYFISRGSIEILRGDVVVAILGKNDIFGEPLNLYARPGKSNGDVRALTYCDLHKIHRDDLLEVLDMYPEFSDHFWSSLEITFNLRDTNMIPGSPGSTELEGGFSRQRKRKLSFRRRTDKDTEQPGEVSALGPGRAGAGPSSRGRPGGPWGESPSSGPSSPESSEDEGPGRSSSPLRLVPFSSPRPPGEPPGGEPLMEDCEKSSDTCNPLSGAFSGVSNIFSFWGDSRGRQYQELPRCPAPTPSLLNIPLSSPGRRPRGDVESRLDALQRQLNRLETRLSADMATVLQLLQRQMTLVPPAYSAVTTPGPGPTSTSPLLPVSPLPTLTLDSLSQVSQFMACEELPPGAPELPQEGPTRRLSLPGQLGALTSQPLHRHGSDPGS
Description: Inhibition of human ERG after 4 hrs by fluorescence polarization assay
In data set [6] the target is T1, Steroid hormone receptor ERR1 (Homo sapiens, UniProt P11474).
T1 sequence (P11474 whole entry): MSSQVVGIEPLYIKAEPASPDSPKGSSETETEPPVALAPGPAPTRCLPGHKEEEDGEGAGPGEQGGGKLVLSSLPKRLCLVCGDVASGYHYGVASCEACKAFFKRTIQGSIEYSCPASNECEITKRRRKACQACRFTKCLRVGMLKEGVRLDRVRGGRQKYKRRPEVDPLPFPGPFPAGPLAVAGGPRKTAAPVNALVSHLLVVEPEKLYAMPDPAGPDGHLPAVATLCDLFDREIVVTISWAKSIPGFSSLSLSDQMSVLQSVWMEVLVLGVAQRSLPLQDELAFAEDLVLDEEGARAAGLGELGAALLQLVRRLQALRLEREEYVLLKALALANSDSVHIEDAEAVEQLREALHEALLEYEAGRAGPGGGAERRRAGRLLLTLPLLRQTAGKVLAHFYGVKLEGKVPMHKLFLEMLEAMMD

The target of another data set is CYP2D6 (Homo sapiens, UniProt P10635). Nature of the data set: Inhibition of CYP2D6 in human liver microsomes assessed as reduction in dextromethorphan O-demethylase activity at 10 uM preincubated for 5 mins followed by NADPH addition and measured after 15 mins by LC-MS/MS analysis relative to control. Particulars: probe dextromethorphan (O-demethylation). It counts as ADME.
Chain of CYP2D6 (P10635 whole entry): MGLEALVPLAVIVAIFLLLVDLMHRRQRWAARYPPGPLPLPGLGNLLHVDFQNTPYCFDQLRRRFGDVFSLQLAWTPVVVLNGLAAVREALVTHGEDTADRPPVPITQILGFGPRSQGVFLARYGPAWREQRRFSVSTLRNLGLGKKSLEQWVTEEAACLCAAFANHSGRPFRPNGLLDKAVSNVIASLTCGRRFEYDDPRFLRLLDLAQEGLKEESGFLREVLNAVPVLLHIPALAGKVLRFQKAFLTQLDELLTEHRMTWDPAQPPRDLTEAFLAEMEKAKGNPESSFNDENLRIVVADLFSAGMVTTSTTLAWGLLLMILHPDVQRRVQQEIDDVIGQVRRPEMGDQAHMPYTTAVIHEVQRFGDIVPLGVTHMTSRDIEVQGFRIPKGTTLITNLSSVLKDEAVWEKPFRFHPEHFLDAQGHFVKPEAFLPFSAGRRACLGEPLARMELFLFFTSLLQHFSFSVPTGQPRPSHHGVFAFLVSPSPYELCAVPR

The target in a further data set is T2, CYP1A2 (Homo sapiens, UniProt P05177).
T2 sequence (P05177 whole entry): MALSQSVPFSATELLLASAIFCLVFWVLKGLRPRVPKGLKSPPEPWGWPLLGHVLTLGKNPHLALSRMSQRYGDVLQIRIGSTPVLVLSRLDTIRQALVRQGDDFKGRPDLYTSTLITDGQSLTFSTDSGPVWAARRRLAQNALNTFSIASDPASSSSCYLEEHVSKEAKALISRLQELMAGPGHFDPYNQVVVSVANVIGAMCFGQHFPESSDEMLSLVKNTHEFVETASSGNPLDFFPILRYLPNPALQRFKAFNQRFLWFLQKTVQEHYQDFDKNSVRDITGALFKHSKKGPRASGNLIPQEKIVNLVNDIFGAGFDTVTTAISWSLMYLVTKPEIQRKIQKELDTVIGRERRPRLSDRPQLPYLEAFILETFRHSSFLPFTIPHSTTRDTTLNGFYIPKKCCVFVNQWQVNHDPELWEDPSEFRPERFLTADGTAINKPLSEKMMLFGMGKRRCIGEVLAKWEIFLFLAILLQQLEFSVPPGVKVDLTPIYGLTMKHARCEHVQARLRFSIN
Nature of the data set: Inhibition of CYP1A2 in human liver microsomes assessed as reduction in phenacetin O-deethylase activity at 10 uM preincubated for 5 mins followed by NADPH addition and measured after 15 mins by LC-MS/MS analysis relative to control. To be noted: probe phenacetin (O-deethylation). It counts as ADME.

A short description of data set [7]: Metabolic stability in rat liver microsomes assessed as compound remaining at 1 uM after 30 mins in presence of NADPH regeneration system by LC-MS/MS analysis. Format: ADME, Microsome. To be noted: read-out: Stability.
Data set [8] is described as follows: AUC in Sprague-Dawley rat at 9 to 10 mg/kg, po via gavage by LC-MS/MS analysis. It counts as ADME, organism-based. To be noted: in vivo.
Data set [9] can be described thus: in vivo. Particulars: Sprague-Dawley, rat, plasma, iv, 1 mg/kg.
Data set [10] can be described thus: Oral bioavailability in Sprague-Dawley rat at 9 to 10 mg/kg via gavage by LC-MS/MS analysis. It counts as ADME, organism-based. Particulars: in vivo.
Data set [11] in a line: in vivo. Particulars: Sprague-Dawley, rat, iv, 1 mg/kg.
Description: Volume of distribution at steady state in Sprague-Dawley rat at 1 mg/kg, iv by LC-MS/MS analysis
Another data set has as its target T3, Estrogen receptor (Homo sapiens, UniProt P03372).
T3 sequence (P03372 whole entry): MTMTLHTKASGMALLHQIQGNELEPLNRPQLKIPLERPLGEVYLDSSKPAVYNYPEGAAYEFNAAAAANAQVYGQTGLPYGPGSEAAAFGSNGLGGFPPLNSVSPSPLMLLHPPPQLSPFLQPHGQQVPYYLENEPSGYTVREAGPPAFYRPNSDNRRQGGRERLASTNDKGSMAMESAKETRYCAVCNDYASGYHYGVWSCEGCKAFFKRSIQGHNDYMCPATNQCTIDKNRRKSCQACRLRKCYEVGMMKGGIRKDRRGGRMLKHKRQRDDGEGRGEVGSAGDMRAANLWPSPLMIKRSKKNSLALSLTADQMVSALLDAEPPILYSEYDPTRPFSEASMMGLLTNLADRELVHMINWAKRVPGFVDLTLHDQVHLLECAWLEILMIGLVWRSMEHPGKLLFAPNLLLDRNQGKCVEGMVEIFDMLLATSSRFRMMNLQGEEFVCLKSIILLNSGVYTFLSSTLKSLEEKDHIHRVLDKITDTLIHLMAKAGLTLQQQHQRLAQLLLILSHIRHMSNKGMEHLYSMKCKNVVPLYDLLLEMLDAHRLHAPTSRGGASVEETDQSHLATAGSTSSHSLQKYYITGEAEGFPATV

A short description of data set [12]: Cmax in Sprague-Dawley rat at 9 to 10 mg/kg, po via gavage by LC-MS/MS analysis. Particulars: in vivo. Format: ADME, organism-based.
Data set [13] can be described thus: in vivo. Particulars: Sprague-Dawley, rat, iv, 1 mg/kg. The source holds these as a separate data set.
Data set [14] is described as follows: AUC (0 to infinity) in Sprague-Dawley rat at 1 mg/kg, iv by LC-MS/MS analysis. To be noted: in vivo. The arrangement: dose 1 mg/kg, time infinity, route intravenous. It counts as ADME, organism-based.
The nature of data set [15]: Terminal half life in Sprague-Dawley rat at 1 mg/kg, iv by LC-MS/MS analysis. Particulars: in vivo, read-out: beta t1/2 (converted). It counts as ADME, organism-based.
A short description of data set [16]: Tmax in Sprague-Dawley rat at 9 to 10 mg/kg, po via gavage by LC-MS/MS analysis. Format: ADME, organism-based. Particulars: in vivo.
Data set [17] in a line: AUC (0 to infinity) in Sprague-Dawley rat at 9 to 10 mg/kg, po via gavage by LC-MS/MS analysis. Format: ADME, organism-based. Particulars: in vivo.
In data set [18] the target is T4, Steroid hormone receptor ERR2 (Homo sapiens, UniProt O95718).
T4 sequence (O95718 whole entry): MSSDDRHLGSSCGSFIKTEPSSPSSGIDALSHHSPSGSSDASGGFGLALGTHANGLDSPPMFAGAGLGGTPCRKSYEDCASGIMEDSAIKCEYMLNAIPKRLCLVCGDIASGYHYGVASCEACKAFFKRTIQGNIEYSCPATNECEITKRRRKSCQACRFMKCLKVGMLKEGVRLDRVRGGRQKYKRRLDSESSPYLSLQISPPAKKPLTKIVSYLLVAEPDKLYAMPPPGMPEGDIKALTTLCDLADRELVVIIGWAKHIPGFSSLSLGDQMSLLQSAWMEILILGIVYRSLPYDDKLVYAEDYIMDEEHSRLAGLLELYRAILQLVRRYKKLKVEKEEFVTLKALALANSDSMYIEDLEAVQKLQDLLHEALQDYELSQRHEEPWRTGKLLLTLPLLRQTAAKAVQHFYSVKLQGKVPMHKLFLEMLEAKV
Nature of the data set: Binding affinity to ERRbeta (unknown origin) using fluorescein-conjugated coactivator PGC-1alpha incubated for 1 hr by TR-FRET assay.

Chain of CYP2C19 (P33261 whole entry): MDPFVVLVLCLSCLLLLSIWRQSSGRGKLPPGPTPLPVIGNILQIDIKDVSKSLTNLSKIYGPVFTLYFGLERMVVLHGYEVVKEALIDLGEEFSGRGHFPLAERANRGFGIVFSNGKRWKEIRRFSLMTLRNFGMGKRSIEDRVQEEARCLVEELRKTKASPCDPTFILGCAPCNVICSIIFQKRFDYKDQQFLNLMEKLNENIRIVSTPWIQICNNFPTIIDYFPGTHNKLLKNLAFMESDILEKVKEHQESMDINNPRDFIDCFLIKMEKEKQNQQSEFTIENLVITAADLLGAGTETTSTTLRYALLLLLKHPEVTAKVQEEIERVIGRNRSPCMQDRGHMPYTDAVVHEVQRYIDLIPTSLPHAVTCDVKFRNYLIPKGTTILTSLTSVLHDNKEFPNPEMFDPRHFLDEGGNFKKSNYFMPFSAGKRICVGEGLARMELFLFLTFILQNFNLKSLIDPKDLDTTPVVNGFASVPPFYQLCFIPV

As to `CC(C)N1CCN(c2ccc(/C(=C(/CCCO)c3ccccc3)c3ccc(O)cc3)cc2)CC1.Cl.Cl`, the remaining at 0.5 h, 1 µM stood at 26.6% in data set [1], 49.7% in [3], 19.9% in data set [4] and 32.5% in data set [7]. Moreover, the Papp at 5 h, 10 µM in [2] was determined as 0.46 ×10⁻⁶ cm/s. For the same compound, the inhibition at 0.25 h, 10 µM on CYP2C19 amounted to 18.8%; on CYP2C9, 13.9%; at CYP3A4 it was 33.6%; at CYP2D6, 36.5%; on CYP1A2, 12%. The values for the IC50 in data set [5] and in data set [6] were 18.7 µM and more than 10 µM, respectively.
In turn, `CN(C)CCOc1ccc(/C(=C(/CCCO)c2ccccc2)c2ccc(O)cc2)cc1.Cl` showed an area under the curve (AUC) in data set [8] of 0.68 µM·h. For the same compound, the clearance in the data set “in vivo [9]” was 44 mL/min/kg. The compound also returned a bioavailability in data set [10] of 8.4%. The compound also gave a volume of distribution (Vd) in the data set “in vivo [11]” of 16.8 L/kg.
`Cc1ccc(/C(=C(\CCCO)c2ccccc2)c2ccc(N3CCN(C)CC3)cc2)cc1.Cl.Cl`: the remaining at 0.5 h, 1 µM in data set [1] turned out to be 79.2%; in data set [4] it was 47.6%; in data set [7], 65.7%. In data set [2], the Papp at 5 h, 10 µM is 4.84 ×10⁻⁶ cm/s. Further, the IC50 against Estrogen receptor was more than 10 µM; in data set [5], 18.9 µM; in [6] it was more than 10 µM. Also, the inhibition at 0.25 h, 10 µM at CYP2C19 is 27.2%; on CYP2C9 it was 37.7%; at CYP3A4, 29.1%; at CYP2D6, 31.8%; at CYP1A2, 0%. In addition, the Cmax in [12] turned out to be 80 nM. The area under the curve (AUC) was 0.28 µM·h in the data set “in vivo [13]” and 0.45 µM·h in [8]. The total exposure AUC(0-inf) in [14] came to 0.29 µM·h; in data set [17], 0.66 µM·h. Also, the half-life in [15] was 2.5 h. This compound also returned a clearance in the data set “in vivo [9]” of 139 mL/min/kg. Also, the Tmax in [16] is 2.8 h. This compound showed a bioavailability in data set [10] of 18.3%. The compound further came in with a Vd in the data set “in vivo [11]” of 30.3 L/kg.
With `Cc1ccc(/C(=C(\CCCO)c2ccccc2)c2ccc(N3CCNCC3)cc2)cc1.Cl.Cl`, the remaining at 0.5 h, 1 µM in [1] worked out at 44%; in data set [3], 58%; in data set [4] it was 28.8%; in data set [7] it was 71.5%. The Papp at 5 h, 10 µM in data set [2] came out at 3.61 ×10⁻⁶ cm/s. The concentration for half-maximal inhibition (IC50) was more than 10 µM on Estrogen receptor, 2.1 µM in data set [18] and more than 10 µM in data set [6]. Also, the inhibition at 0.25 h, 10 µM on CYP2C19 turned out to be 57.7%; on CYP2C9, 39.3%; at CYP3A4, 59.9%; on CYP2D6, 38.5%; on CYP1A2 it was 28.7%.
`Cc1ccc(/C(=C(\CCCO)c2ccccc2)c2ccc(N3CCN(C(C)C)CC3)cc2)cc1.Cl.Cl`: the remaining at 0.5 h, 1 µM in data set [1] amounted to 54.2%; in data set [4], 19.7%; in [7], 40%. The Papp at 5 h, 10 µM in data set [2] was found to be 2.09 ×10⁻⁶ cm/s. Further, the values for the half-inhibitory concentration (IC50) (against Estrogen receptor; in data set [5]; in [6]) were more than 10 µM, more than 30 µM and more than 10 µM, respectively. Besides, the inhibition at 0.25 h, 10 µM at CYP2C19 is 30.3%; at CYP2C9, 26.6%; on CYP3A4, 47%; at CYP2D6, 31.1%; on CYP1A2, 10.2%. This compound displayed a Cmax in data set [12] of 160 nM. For the same compound, the area under the curve (AUC) in “in vivo [13]” worked out at 0.58 µM·h; in [8] it was 1.02 µM·h. The area under the curve AUC(0-inf) in data set [14] was 0.64 µM·h; in data set [17] it was 1.41 µM·h. Moreover, the half-life in data set [15] is 3.1 h. The same compound came in with a clearance in “in vivo [9]” of 58 mL/min/kg. The time of peak concentration (Tmax) in data set [16] came to 4 h. The bioavailability in data set [10] is 17.6%. The volume of distribution (Vd) in the data set “in vivo [11]” amounted to 9.8 L/kg.
